# Experimental data from patent US9403827B2, “Substituted purinone compounds” (NOVARTIS AG, priority 2013, dated 2016).
# Legend:
# Assay type in all cases: binding
# [1] = molecular target: human MDM4 protein (amino acids 2-185) (Homo sapiens (Human), UniProt O15151); assay: TR-FRET p53-MDM4 Assay 1; conditions: 2.5 nM MDM4-biotinylated, 10 nM Cy5-p53 peptide
# Description: (§1) Time Resolved Fluorescence Energy Transfer (TR-FRET) Assay
# (§2) The inhibition of p53-MDM2 and p53-MDM4 interactions is measured by time resolved fluorescence energy transfer (TR-FRET). Fluorescence energy transfer (or Foerster resonance energy transfer) describes an energy transfer between donor and acceptor fluorescent molecules. For this assay, human MDM2 protein (amino acids 2-188) and human MDM4 protein (amino acids 2-185), tagged with a C-terminal biotin moiety, are used in combination with a Europium labeled streptavidin (Perkin Elmer, Inc., Waltham, Mass., USA) serving as the donor fluorophore. The p53 derived, Cy5 labeled peptide Cy5-TFSDLWKLL (p53 aa18-26) is the energy acceptor. Upon excitation of the donor molecule at 340 nm, binding interaction between MDM2 or MDM4 and the p53 peptide induces energy transfer and enhanced response at the acceptor emission wavelength at 665 nm.
# (§3) Disruption of the formation of the p53-MDM2 or p53-MDM4 complex due to an inhibitor molecule binding to the p53 binding site of MDM2 or MDM4 results in increased donor emission at 620 nm. The ratiometric FRET assay readout is calculated from the raw data of the two distinct fluorescence signals measured in time resolved mode (fluorescence 665 nm/fluorescence 620 nm×1000).
# (§4) The test is performed in white 384-well plates (Greiner Bio-One, reference 781207) in a total volume of 60 μL by adding 1 μL of compounds tested at different concentrations diluted in 100% DMSO (1.7% final DMSO concentration) in reaction buffer (PBS, 125 mM NaCl, 0.001% Novexin (consists of carbohydrate polymers), designed to increase the solubility and stability of proteins; Expedeon Ltd., Cambridgeshire, United Kingdom), 0.01% Gelatin, 0.01% 0.2%, Pluronic F-127 (block copolymer from ethylenoxide and propyleneoxide), 1 mM DTT). After addition of 1.25 nM MDM2-biotinylated or 2.5 nM MDM4-biotinylated (internal preparations, both MDM2 and MDM4 are biotinylated at the C-terminal of the peptide construct), and 0.625 nM Europium labeled streptavidin (Perkin Elmer), the solution is pre-incubated for 15 minutes at room temperature, then 10 nM Cy5-p53 peptide (internal preparation, the Cy5 dye is directly bound to the N-terminal part of p53 peptide construct) is added before an incubation at room temperature for 15 minutes prior to reading the plate. For measurement of samples, a Victor II microplate reader (Perkin Elmer) is used with the following settings: Excitation 340 nm, Emission Donor 620 nm and Emission Acceptor 665 nm. IC50 values are calculated by curve fitting using XLfit. If not specified, reagents are purchased from Sigma-Aldrich Chemie GmBH, Buchs, Switzerland.
# (§5) This assay was used to evaluate compounds displaying inhibition of p53-MDM2 interaction and p53-MDM4 interaction at IC50s of 0.005 to 50 μM (p53-MDM2 Assay 1 and p53-MDM4 Assay 1, respectively). For selected compounds displaying IC50s between […] on MDM2, a slightly modified assay is used with the following adaptations: 0.1 nM MDM2, 0.1 nM Europium labeled streptavidin and Tecan genios Pro is used as a microplate reader for the fluorescence measurements (p53-MDM2 Assay 2).
# [2] = molecular target: T1, human MDM2 protein (amino acids 2-188) (Homo sapiens (Human), UniProt Q00987); assay: TR-FRET p53-MDM2 Assay 1; conditions: 1.25 nM MDM2-biotinylated, 10 nM Cy5-p53 peptide
# T1 sequence (Q00987 2-188): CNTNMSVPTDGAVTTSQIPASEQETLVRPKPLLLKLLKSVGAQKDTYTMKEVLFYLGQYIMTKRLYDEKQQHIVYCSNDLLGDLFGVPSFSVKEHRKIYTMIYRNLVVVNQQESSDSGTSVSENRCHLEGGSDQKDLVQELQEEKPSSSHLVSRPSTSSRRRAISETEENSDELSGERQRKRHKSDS
# Description: as §1, §2, §3, §4, §5
# [3] = molecular target: T1, human MDM2 protein (amino acids 2-188); assay: TR-FRET p53-MDM2 Assay 2 (modified: 0.1 nM MDM2); conditions: 0.1 nM MDM2, 0.1 nM Europium labeled streptavidin, Tecan genios Pro reader
# Description: as §1, §2, §3, §4, §5
# human MDM4 protein (amino acids 2-185), sequence (O15151 2-185): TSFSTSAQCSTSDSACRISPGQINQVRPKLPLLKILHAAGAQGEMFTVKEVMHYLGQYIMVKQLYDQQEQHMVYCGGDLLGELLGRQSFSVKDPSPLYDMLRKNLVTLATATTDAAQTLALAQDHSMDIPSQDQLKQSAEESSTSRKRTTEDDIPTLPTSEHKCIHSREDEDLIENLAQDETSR
Compound,IC50 [1],IC50 [2],IC50 [3]
"COc1ccccc1-c1nc2c(n1C(C)C)C(c1ccc(Cl)cc1)N(c1cccc(Cl)c1F)C(=O)N2 (centres unmarked) [Example 1, 1-(3-Chloro-2-fluoro-phenyl)-6-(4-chloro-phenyl)-7-isopropyl-8-(2-methoxy-phenyl)-1,3,6,7-tetrahydro-purin-2-one]",1.51 µM,0.002 µM,0.882 nM
"COc1ccccc1-c1nc2c(n1C(C)C)C(c1ccc(Cl)cc1C)N(c1cccc(Cl)c1F)C(=O)N2 (centres unmarked) [Example 2, 1-(3-Chloro-2-fluoro-phenyl)-6-(4-chloro-2-methyl-phenyl)-7-isopropyl-8-(2-methoxy-phenyl)-1,3,6,7-tetrahydro-purin-2-one]",2.13 µM,0.0021 µM,0.779 nM
"COc1ccncc1-c1nc2c(n1C(C)C)C(c1ccc(Cl)cc1C)N(c1cc(Cl)ccc1C)C(=O)N2 (centres unmarked) [Example 4, 6-(4-Chloro-2-methylphenyl)-1-(5-chloro-2-methylphenyl)-7-isopropyl-8-(4-methoxypyridin-3-yl)-6,7-dihydro-1H-purin-2(3H)-one]",16.7 µM,0.0031 µM,–
